According to ChEMBL document CHEMBL1201862, “PubChem BioAssay data set” (2004):
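Tested at 5 concentrations; 48 h exposure; 96-well plates; endpoints linearly interpolated, else capped at highest concentration. The concentration for 50% growth inhibition is given as GI50.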 Active and inactive are the calls of the source. Cut-off read from the data, not from the text of the source: active = GI50 up to about 1.1 µM and inactive = higher.

Key:
Assay in all cases: inhibition of tumour cell growth, NCI panel, 48 h
HCC 2998 = test system: HCC 2998
Malme-3M = test system: Malme-3M
UO-31 = test system: UO-31
K562 = test system: K562
SK-MEL-2 = test system: SK-MEL-2
T47D = test system: T47D
SK-MEL-28 = test system: SK-MEL-28
SF-268 = test system: SF-268
SNB-19 = test system: SNB-19
HOP-62 = test system: HOP-62
DLD-1 = test system: DLD-1
HCT-116 = test system: HCT-116
NCI/ADR-RES = test system: NCI/ADR-RES
LXFL 529 = test system: LXFL 529
MOLT-4 = test system: MOLT-4
IGROV-1 = test system: IGROV-1
HOP-18 = test system: HOP-18
NCI-H522 = test system: NCI-H522
SW-620 = test system: SW-620
EKVX = test system: EKVX
MDA-MB-231 = test system: MDA-MB-231
SF-539 = test system: SF-539
UACC-257 = test system: UACC-257
HL-60 = test system: HL-60
SK-OV-3 = test system: SK-OV-3
786-0 = test system: 786-0
Hs-578T = test system: Hs-578T
HOP-92 = test system: HOP-92
KM-20L2 = test system: KM-20L2
SNB-78 = test system: SNB-78
SN12C = test system: SN12C
NCI-H226 = test system: NCI-H226
A498 = test system: A498
TK-10 = test system: TK-10
ACHN = test system: ACHN
XF498 = test system: XF498
SF-295 = test system: SF-295
M19-MEL = test system: M19-MEL
OVCAR-8 = test system: OVCAR-8
MDA-MB-435 = test system: MDA-MB-435
CCRF-CEM = test system: CCRF-CEM
CAKI-1 = test system: CAKI-1
LOX IMVI = test system: LOX IMVI
U-251 = test system: U-251
DMS-114 = test system: DMS-114
MDA-N = test system: MDA-N
OVCAR-3 = test system: OVCAR-3
BT-549 = test system: BT-549
UACC-62 = test system: UACC-62
A549 = test system: A549
NCI-H460 = test system: NCI-H460
DMS-273 = test system: DMS-273
HCT-15 = test system: HCT-15
SR = test system: SR
SNB-75 = test system: SNB-75
MCF7 = test system: MCF7
RXF 393 = test system: RXF 393
M14 = test system: M14
DU-145 = test system: DU-145
OVCAR-5 = test system: OVCAR-5
OVCAR-4 = test system: OVCAR-4
PC-3 = test system: PC-3
SK-MEL-5 = test system: SK-MEL-5
NCI-H23 = test system: NCI-H23
HT-29 = test system: HT-29
RXF 631 = test system: RXF 631
RPMI-8226 = test system: RPMI-8226
COLO 205 = test system: COLO 205
KM12 = test system: KM12

Measured: GI50

O=S(=O)(O)c1cc(/N=N/c2cc(S(=O)(=O)O)c3ccccc3c2O)ccc1/C=C/c1ccc(/N=N/c2cc(S(=O)(=O)O)c3ccccc3c2O)cc1S(=O)(=O)O
inactive: HCC 2998 > 100 µM | Malme-3M > 333 µM | UO-31 > 367 µM | K562 30.1 µM | SK-MEL-2 > 371 µM | T47D 497 µM | SK-MEL-28 594 µM | SF-268 > 800 µM | SNB-19 > 733 µM | HOP-62 > 668 µM | DLD-1 > 100 µM | HCT-116 > 213 µM | NCI/ADR-RES 427 µM | LXFL 529 > 1000 µM | MOLT-4 22.8 µM | IGROV-1 > 399 µM | HOP-18 > 100 µM | NCI-H522 > 492 µM | SW-620 > 605 µM | EKVX > 399 µM | MDA-MB-231 27.3 µM | SF-539 > 386 µM | UACC-257 > 291 µM | HL-60 18.2 µM | SK-OV-3 > 630 µM | 786-0 > 684 µM | Hs-578T 499 µM | HOP-92 > 80.9 µM | KM-20L2 > 100 µM | SNB-78 > 100 µM | SN12C > 743 µM | NCI-H226 270 µM | A498 > 100 µM | TK-10 24.9 µM | ACHN > 483 µM | XF498 > 100 µM | SF-295 > 462 µM | M19-MEL > 100 µM | OVCAR-8 > 755 µM | MDA-MB-435 111 µM | CCRF-CEM 20.6 µM | CAKI-1 > 574 µM | LOX IMVI > 305 µM | U-251 > 716 µM | DMS-114 > 100 µM | MDA-N 151 µM | OVCAR-3 > 553 µM | BT-549 284 µM | UACC-62 > 312 µM | A549 > 480 µM | NCI-H460 > 437 µM | DMS-273 > 83 µM | SR 27 µM | SNB-75 > 458 µM | MCF7 310 µM | RXF 393 > 771 µM | M14 131 µM | DU-145 303 µM | OVCAR-5 146 µM | OVCAR-4 > 86.5 µM | PC-3 150 µM | SK-MEL-5 86.7 µM | NCI-H23 > 537 µM | HT-29 > 457 µM
98.6 µM: HCT-15

Cc1cc2c(C=O)n[nH]c2c(C#N)c1C
32.4 µM: HCT-15
inactive: HCC 2998 > 100 µM | Malme-3M > 100 µM | UO-31 34.5 µM | K562 > 100 µM | SK-MEL-2 > 100 µM | SK-MEL-28 48.4 µM | SF-268 31.9 µM | SNB-19 > 100 µM | HOP-62 > 100 µM | DLD-1 > 100 µM | HCT-116 30.4 µM | LXFL 529 34.7 µM | MOLT-4 > 100 µM | IGROV-1 67 µM | NCI-H522 10.4 µM | SW-620 40.6 µM | EKVX > 100 µM | SF-539 27.7 µM | UACC-257 43.5 µM | RXF 631 58.5 µM | SK-OV-3 > 100 µM | 786-0 > 100 µM | HOP-92 31.3 µM | RPMI-8226 > 100 µM | KM-20L2 65.9 µM | SNB-78 95.3 µM | SN12C 29.3 µM | A498 29.2 µM | TK-10 > 100 µM | ACHN 63.5 µM | SF-295 44.1 µM | M19-MEL 60.8 µM | OVCAR-8 43 µM | CCRF-CEM > 100 µM | LOX IMVI 39.4 µM | U-251 60.3 µM | COLO 205 > 100 µM | DMS-114 26.5 µM | OVCAR-3 48 µM | UACC-62 43.3 µM | A549 > 100 µM | NCI-H460 46.6 µM | DMS-273 43.1 µM | KM12 34.7 µM | SNB-75 7.43 µM | M14 35.9 µM | OVCAR-5 > 100 µM | OVCAR-4 29.2 µM | SK-MEL-5 32.6 µM | NCI-H23 29.6 µM | HT-29 53.6 µM
